According to EP1490080B1, “medical use of anthocyanins extracted from black rice” (Forbes Medi-Tech Inc., priority 2002, dated 2003):

Legend:
[1] = system: supercoiled DNA; test: Peroxyl radical (AAPH) induced supercoiled DNA scission, agarose gel electrophoresis; type: biochemical
Description: The effects of the anthocyanin composition in preventing DNA oxidation induced by oxidative radicals such as the peroxyl radical and hydroxyl radicals (site specific and non-site specific) were investigated. […] A similar effect was seen by the addition of cyanidin-3-glucoside and peonidin-3-glucoside in combination at various ratios Figure 11).
(§1) Both peroxyl radical and hydroxyl radical were applied in this test to evaluate the effect of black rice extract of the present invention in preventing DNA scission by 0.7% agarose gel electrophoresis with 0.5µg/ml ethidium bromide using TAE buffer (40mM Tris-acetate, 2mM EDTA, pH8.5). DNA bands were visualized by ultraviolet bench top transilluminator (UVP Inc., Upland, CA) and densities of bands were analyzed by LabWork software (UVP Inc., Upland, CA). The inhibition of DNA nicking was calculated as following equation: %Inh = (Dnative -Dsample)/(Dnative -Doxidative) × 100 [formula]
(§2) Dnative, Doxidative. Dsample represented the density of DNA without AAPH, DNA with AAPH and DNA with AAPH and test sample, respectively.

[2] = system: LPS-activated mouse macrophage cell RAW264.7; test: Inhibition of nitric oxide (nitrite, Griess reagent) in LPS-activated macrophage cells; type: cell-based; details: mean±SD, 1µg/ml LPS 24 hr
Procedure: Mouse macrophage cell RAW 264.7 (ATCC) was cultured in DMEM medium supplemented with 10% fetal bovine serum and antibiotics (100U/ml of penicillin and […]) at 37°C under 5% CO2, Cell was plated at a density of 2×10^5 cells/well into 96-well plates. After overnight growth when cells adhered to the bottom of well, various amount of the black rice extract in PBS and 1µg/ml bacterial lipopolysaccharide (LPS, Escheridchia coli, serotype 0111:B4) were added for another 24 hr. Medium was aliquot (100µl) to another 96-well plate where 100µl of Greiss reagent (1% sulfanilamide in 5% phosphoric acid and 0.1 % naphthylethylenediamine dihydrocholide in water, 1:1 v/v) was then added. Absorbance at 540nm was determined with ELISA plate reader. The concentration of nitrite was measured in according to standard curve obtained from the same procedure. The inhibition of nitric oxide was calculated according to the following equation: %Inhibition = (Abspositive -Abssample)/(Abspositive -Absnegative) × 100 [formula] of which, Abspositive, Absnegative, Abssample represent absorbance of cultural media with LPS, without LPS and sample with LPS.
Large amount of nitric oxide expression was made possible by using mouse macrophage cell line RAW264.7 co-incubated with bacterial LPS. The measurement of nitric oxide was indirectly measured by its metabolite nitrite in the supernatant of cell cultural media by Griess reagent.

[3] = system: supercoiled DNA; test: DNA nicking induced by non-site specific hydroxyl radical, agarose gel electrophoresis; type: biochemical
Procedure: (§3) In this hydroxyl radical model, the hydroxyl radical was generated by ascorbic acid mediated Fenton reaction.
as §1, §2
(§4) In the present study, we adapted the concept of both non-site specific and site-specific hydroxyl radical and applied these to the DNA scission assays (Figures 10 and 11). It is evident that hydroxyl radical, no matter site-specific or non-site specific broke the integrity of supercoiled DNA strand (lane 2 of Figure 10).

[4] = system: supercoiled DNA; test: DNA nicking induced by site-specific hydroxyl radical, agarose gel electrophoresis; type: biochemical
Procedure: as §3, §1, §2, §4

| Structure (SMILES) | protection on the DNA strand scission ([1]; 1µg/ml) [%] | protection on the DNA strand scission ([1]; 5µg/ml) [%] | inhibition at 1 µM ([2]; Mus musculus, RAW264.7, 1µM, read-out: Inhibition percentage of nitric oxide) [%] | inhibition at 10 µM ([2]; Mus musculus, RAW264.7, 10µM, read-out: Inhibition percentage of nitric oxide) [%] | inhibition at 100 µM ([2]; Mus musculus, RAW264.7, 100µM, read-out: Inhibition percentage of nitric oxide) [%] | Inhibition percentage of nitric oxide ([2]; 1µM) [%] | Inhibition percentage of nitric oxide ([2]; 10µM) [%] | Inhibition percentage of nitric oxide ([2]; 100µM) [%] | %Inh ([1]; 10µg/ml) [%] | recovery of peroxyl radical damage to the supercoiled DNA strand ([1]; Figure 10) | Inhibition percentage, Non-site specific ([3]; 0.17 µg/ml) [%] | Inhibition percentage, Non-site specific ([3]; 1.7 µg/ml) [%] | Inhibition percentage, Site specific ([4]; 0.17 µg/ml) [%] | Inhibition percentage, Site specific ([4]; 1.7 µg/ml) [%] |
| --- | --- | --- | --- | --- | --- | --- | --- | --- | --- | --- | --- | --- | --- | --- |
| OC[C@H]1O[C@@H](Oc2cc3c(O)cc(O)cc3[o+]c2-c2ccc(O)c(O)c2)[C@H](O)[C@@H](O)[C@@H]1O [Cyanidin-3-glucoside, cyanidin-3-O-glucoside] | 11.5 | 45.3 | 12.7 ± 2.7 | 23.1 ± 0.9 | 72.9 ± 4.8 | – | – | – | – | – | – | – | – | – |
| COc1cc(-c2[o+]c3cc(O)cc(O)c3cc2O[C@@H]2O[C@H](CO)[C@@H](O)[C@H](O)[C@H]2O)ccc1O [Peonidin-3-glucoside, peonidin-3-O-glucoside] | 11.4 | 44.1 | – | – | – | 14.4±0.6 | 22.3±3.7 | 35.0±2.5 | – | – | – | – | – | – |
| Cc1c(C)c2c(c(C)c1O)CCC(C)(C(=O)O)O2 (stereo not shown) [Trolox] | – | – | – | – | – | – | – | – | 100 | partial recovery | 44.0 | 80.8 | 25.7 | 61.0 |
